We go through one compound from paper PMC9459403, “New inhibitors of cathepsin V impair tumor cell proliferation and elastin degradation and increase immune cell cytotoxicity” (Computational and Structural Biotechnology Journal, 2022).

The subject of this assay is MCF7 cells. Put plainly: Proliferation assay (CFSE-labeled cells, flow cytometry). In kind it is cell-based, human. The following applies: 72 h. On the procedure:
To assess the effect of cathepsin V inhibitors on cell proliferation, MCF7 cells were fluorescently labeled with carboxyfluorescein succinimidyl ester (CFSE; ImmunoChemistry Technologies, Bloomington, MN, USA) in PBS for 15 min at room temperature according to the manufacturer’s instructions. Cells were washed with PBS, resuspended in complete medium, seeded (at 4 × 10^4 cells/well) into 24-well plates, and allowed to adhere overnight. Cells were then treated with the following inhibitors: compound 7 (10 μM), E-64d (10 μM), CLIK-148 (1 μM), LHVS (10 nM), pepstatin (20 μM), their combinations, or DMSO (0.1 %) in 500 μL of medium for 72 h at 37 °C. To prepare cells for flow cytometry, cells were detached and transferred to round-bottomed polystyrene tubes and washed with PBS. Before measurement, 7-aminoactinomycin D (7-AAD; ImmunoChemistry Technologies, Bloomington, MN, USA) was added according to the manufacturer’s instructions to exclude dead cells. Therefore, the green fluorescence arising from CFSE was monitored only for viable cells. The measurement was performed using a FACSCalibur instrument (BD Biosciences, San Jose, CA, USA).
In general terms: Flow cytometry measures light scatter and fluorescence of single cells or particles in a stream.

In the case of `O=C(NCc1cccc2ccccc12)NCC1CCN(C(=O)Oc2ccccc2)CC1` [Compound 7, Phenyl 4-((3-(naphthalen-1-ylmethyl)ureido)methyl)piperidine-1-carboxylate], where the note is “10 μM, higher CFSE = less proliferation”, the “increase of fluorescence intensity of CFSE-labeled cells compared to control cells” value was found to be 50.6 ± 5.1%. Further, the “increase of relative CFSE fluorescence intensity, co-treatment with CLIK-148, LHVS, and compound 7 together” value (compound 7 10 μM + CLIK-148 1 μM + LHVS 10 nM) was 46.1 ± 5.2%.
